# Assay results as given in patent publication US5352800A, “Process for the production of a novel endothelin antagonist” (Merck & Co., Inc., priority 1993, dated 1994).
# Experiment: Stability of the product during purification (sensitivity to methanol)
# Type: physicochemical
# Settings: particularly at a pH below 6
compound,measurement,value
CC=C(C)C=C(C)C1C(C)=CC2(C)CC(C)CCC2C1C(=O)C1=CC(O)(Cc2ccccc2)C(=O)N1 (stereo not shown) [Structural Formula I],instability of the product / sensitivity to methanol,sensitivity to methanol particularly at a pH below 6
